The record followed here is patent US9364492B2, “Method for glycosylation of flavonoid compounds” (SUNTORY HOLDINGS LIMITED, priority 2007, dated 2016).

Data set [1] concerns TRa2. Description: Substrate specificity: glycosylation of acceptor compounds with dextrin by crude TRa2 enzyme solution, HPLC. It is filed as biochemical, Trichoderma viride. The note with it: 0.5 mM or 10 mM glycosyl acceptor compound, 10 mg dextrin, pH 5.2, 45° C., 24 hr. The procedure: The strain TRa2-1 was cultured overnight at 30° C. with shaking in 10 ml YPD medium. After reaching the resting phase, the culture solution was inoculated into the same medium (2% (v/v)) and cultured with shaking at 30° C. for 3 days. After culturing, the supernatant was collected by centrifugation and concentrated 5-fold to give a crude enzyme solution of TRa2. The reaction was performed at 45° C. for 24 hr in 100 μl enzyme reaction solution containing 0.5 mM or 10 mM glycosyl acceptor compound ((+)-catechin, (−)-epigallocatechin-3-O-gallate, esculetin, naringenin, quercetin, daidzein, genistein or kaempferol), 10 mg dextrin, 100 mM acetate buffer (pH 5.2) and the crude enzyme solution, followed by HPLC analysis.

The nature of data set [2]: Solubility of glycoside in water. The data set is classed as physicochemical. The procedure:
(+)-Catechin or 5-O-α-D-glucopyranosyl-(+)-catechin obtained in Example 3 was added to water at different concentrations ranging from 10 to 450 mg/ml and dissolved by vigorous stirring, followed by centrifugation to remove precipitates. The supernatant was analyzed by HPLC to quantify the amounts of (+)-catechin and 5-O-α-D-glucopyranosyl-(+)-catechin. The same procedure was also repeated to study the solubility of (−)-epigallocatechin-3-β-gallate or 5-O-α-D-glucopyranosyl-(−)-epigallocatechin-3-O-gallate.

The test system of data set [3] is TRa2. Description: Glycosidase activity of TRa2 on sugars, TLC. It is filed as biochemical, Trichoderma viride. The note with it: 0.5% sugar, 20 mM acetate buffer pH 5.0, 50° C., 1 hour. The procedure:
The culture supernatant (500 μl) was concentrated about 5-fold using Microcon YM-30 (Amicon). The above concentrate (10 μl) was added to 100 μl of 20 mM acetate buffer (pH 5.0) containing 0.5% maltose, maltotriose, maltotetraose, dextrin, α-cyclodextrin, β-cyclodextrin or γ-cyclodextrin, and reacted at 50° C. for 1 hour.
After completion of the reaction, each sample was analyzed by TLC as follows. The plate used was a silica gel G-60 plate (Merck & Co., Inc.), and the developing solution used was 2-propanol:acetone:0.5 M lactic acid=2:2:1. For detection, the plate was sprayed with sulfuric acid:ethanol=1:9, air-dried and then heated on a hot plate. As a result, none of the sugars was degraded in a culture solution of the control strain (strain C-1) transformed with vector pYE22m.

The test system of data set [4] is Cellulase “Onozuka” RS. Kind of data set: Glycosyl donor selectivity 2: (+)-catechin, Cellulase “Onozuka” RS and each glycosyl donor, HPLC. The following applies: substance as glycosyl donor (10 mg); (+)-catechin 3 mg; 50° C., 1 day, pH 5. The data set is classed as biochemical, Trichoderma viride. The procedure: (+)-Catechin (3 mg) was mixed with Cellulase “Onozuka” RS (10 mg), each glycosyl donor (10 mg) and 0.1 M acetate buffer (100 μl, pH 5), followed by stirring at 50° C. for 1 day. The glycosyl donors used were maltose, maltotriose, maltotetraose, maltopentaose, maltohexaose, maltoheptaose and dextrin (Nacalai Tesque, Inc., Japan), as well as γ-cyclodextrin (Wako Pure Chemical Industries, Ltd., Japan). After the reaction, the centrifuged supernatant was diluted 10-fold and analyzed by HPLC.

The nature of data set [5]: Heat stability of glycoside. The data set is classed as physicochemical. The following applies: 100 μM in 10 mM potassium phosphate buffer pH 7.0, 4° C. to 100° C., 0 to 4 hours. As to the method: After 10 mM potassium phosphate buffer (pH 7.0, 30 μl) containing 100 μM (+)-catechin or 4′-O-α-D-glucopyranosyl-(+)—catechin obtained in Example 4 was treated at different temperatures ranging from 4° C. to 100° C. for 0 to 4 hours, each sample was transferred on ice and mixed with 0.1% TFA (60 μl), followed by HPLC analysis in the same manner as shown in Example 1.

The test system of data set [6] is Cellulase “Onozuka” RS. Description: Glycosyl donor selectivity 1: (+)-catechin, Cellulase “Onozuka” RS and each glycosyl donor, HPLC. The data set is classed as biochemical, Trichoderma viride. The following applies: substance as glycosyl donor (20 mg); (+)-catechin 6 mg; 50° C., 1 day, pH 5. The procedure: (+)-Catechin (6 mg) was mixed with Cellulase “Onozuka” RS (20 mg), each glycosyl donor (20 mg) and 0.1 M acetate buffer (200 μl, pH 5), followed by stirring at 50° C. for 1 day. After the reaction, the centrifuged supernatant was diluted 10-fold and analyzed by HPLC. The glycosyl donors used were cellobiose (Sigma), dextran (Sigma), maltose (Nacalai Tesque, Inc., Japan), carboxymethylcellulose sodium (Nacalai Tesque, Inc., Japan), soluble starch (Nacalai Tesque, Inc., Japan), dextrin (Nacalai Tesque, Inc., Japan), isomaltooligosaccharide (Wako Pure Chemical Industries, Ltd., Japan), α-cyclodextrin (Wako Pure Chemical Industries, Ltd., Japan), γ-cyclodextrin (Wako Pure Chemical Industries, Ltd., Japan) and trehalose dihydrate (Nacalai Tesque, Inc., Japan).

In the case of `O=c1c(O)c(-c2ccc(O)c(O)c2)oc2cc(O)cc(O)c12` [quercetin], the “area ratio (%) between acceptor compound and glycoside product” value in the data set on TRa2 [1] is reported as 9.4%.

On to `OC[C@H]1O[C@H](Oc2cc(O)cc3c2C[C@H](O)[C@@H](c2ccc(O)c(O)c2)O3)[C@H](O)[C@@H](O)[C@@H]1O` [5-O-α-D-glucopyranosyl-(+)-catechin], for which, in data set [2], the “solubility relative to (+)-catechin” value is listed as “at least 40 fold”.

For the compound (−)-epigallocatechin-3-O-gallate, the “area ratio (%) between acceptor compound and glycoside product” value in the data set on TRa2 [1] turned out to be 17.7%.

`O=c1ccc2cc(O)c(O)cc2o1` [esculetin]: the “area ratio (%) between acceptor compound and glycoside product” value with TRa2 [1] is 3.5%.

As to `O=c1c(-c2ccc(O)cc2)coc2cc(O)ccc12` [daidzein], in the data set with TRa2 [1], the “area ratio (%) between acceptor compound and glycoside product” value came to 10.7%.

For `OC[C@H]1O[C@H](O[C@H]2[C@H](O)[C@@H](O)[C@@H](O[C@H]3[C@H](O)[C@@H](O)[C@@H](O[C@H]4[C@H](O)[C@@H](O)C(O)O[C@@H]4CO)O[C@@H]3CO)O[C@@H]2CO)[C@H](O)[C@@H](O)[C@@H]1O` (some centres unmarked) [Maltotetraose, maltotetraose], the “degradation of sugar in culture solution of strain TRa2-1” value (“degradation of sugar” for short) with TRa2 [3] is “degraded”. Moreover, in the data set on Cellulase “Onozuka” RS [4], the “Product (% area) 5-Glc” value is recorded as 7.15 % area and the “Product (% area) 7-Glc” value came to 1.60 % area.

Turning to `OC[C@H]1O[C@H](O[C@H]2[C@H](O)[C@@H](O)C(O)O[C@@H]2CO)[C@H](O)[C@@H](O)[C@@H]1O` (mixture of isomers) [Maltose, maltose], in the data set on TRa2 [3], the “degradation of sugar” value was “no degradation”.

On to maltopentaose, for which, in the data set on Cellulase “Onozuka” RS [4], the “Product (% area) 5-Glc” value worked out at 7.87 % area and the “Product (% area) 7-Glc” value is on record as 1.98 % area.

`OC[C@H]1O[C@H](Oc2ccc([C@H]3Oc4cc(O)cc(O)c4C[C@@H]3O)cc2O)[C@H](O)[C@@H](O)[C@@H]1O` [4′-O-α-D-glucopyranosyl-(+)-catechin]: the “heat stability (% remaining)” value in data set [5] is reported as “more stable against heat than catechin”.

On to `O=C1C[C@@H](c2ccc(O)cc2)Oc2cc(O)cc(O)c21` [naringenin], for which the “area ratio (%) between acceptor compound and glycoside product” value in the data set on TRa2 [1] was found to be 4.4%.

For `Oc1cc(O)c2c(c1)O[C@H](c1ccc(O)c(O)c1)[C@@H](O)C2` [(+)-catechin], the “area ratio (%) between acceptor compound and glycoside product” value in the data set on TRa2 [1] amounted to 10%. In addition, the water solubility result in data set [2] is listed as “substantially insoluble in water”.

For the compound maltoheptaose, in the data set on Cellulase “Onozuka” RS [4], the “Product (% area) 5-Glc” value worked out at 7.39 % area and the “Product (% area) 7-Glc” value amounted to 1.97 % area.

In the case of `OC[C@H]1O[C@@H]2O[C@H]3[C@H](O)[C@@H](O)[C@@H](O[C@H]4[C@H](O)[C@@H](O)[C@@H](O[C@H]5[C@H](O)[C@@H](O)[C@@H](O[C@H]6[C@H](O)[C@@H](O)[C@@H](O[C@H]7[C@H](O)[C@@H](O)[C@@H](O[C@H]1[C@H](O)[C@H]2O)O[C@@H]7CO)O[C@@H]6CO)O[C@@H]5CO)O[C@@H]4CO)O[C@@H]3CO` [α-Cyclodextrin, α-cyclodextrin], the “degradation of sugar” value in the data set on TRa2 [3] was “no degradation”.

Take maltotriose: in the data set with TRa2 [3], the “degradation of sugar” value is recorded as “degraded”. In the data set on Cellulase “Onozuka” RS [4], the “Product (% area) 5-Glc” value is 2.54 % area and the “Product (% area) 7-Glc” value is recorded as 0.51 % area.

For the compound `O=c1c(-c2ccc(O)cc2)coc2cc(O)cc(O)c12` [genistein], the “area ratio (%) between acceptor compound and glycoside product” value in the data set on TRa2 [1] is 6.8%.

On to `O=c1c(O)c(-c2ccc(O)cc2)oc2cc(O)cc(O)c12` [kaempferol], for which the “area ratio (%) between acceptor compound and glycoside product” value in the data set on TRa2 [1] is listed as 3.1%.

As to `OC[C@H]1O[C@@H]2O[C@H]3[C@H](O)[C@@H](O)[C@@H](O[C@H]4[C@H](O)[C@@H](O)[C@@H](O[C@H]5[C@H](O)[C@@H](O)[C@@H](O[C@H]6[C@H](O)[C@@H](O)[C@@H](O[C@H]7[C@H](O)[C@@H](O)[C@@H](O[C@H]8[C@H](O)[C@@H](O)[C@@H](O[C@H]9[C@H](O)[C@@H](O)[C@@H](O[C@H]1[C@H](O)[C@H]2O)O[C@@H]9CO)O[C@@H]8CO)O[C@@H]7CO)O[C@@H]6CO)O[C@@H]5CO)O[C@@H]4CO)O[C@@H]3CO` [γ-Cyclodextrin, γ-cyclodextrin], the “degradation of sugar” value in the data set with TRa2 [3] is listed as “degraded”. Besides, in the data set with Cellulase “Onozuka” RS [4], the “Product (% area) 5-Glc” value was 14.53 % area and the “Product (% area) 7-Glc” value stood at 4.73 % area. In addition, in the data set on Cellulase “Onozuka” RS [6], the “Product (% area) 5-Glc” value was found to be 14.69 % area and the “Product (% area) 7-Glc” value was determined as 5.91 % area.

Take `O=C(O[C@@H]1Cc2c(O[C@H]3O[C@H](CO)[C@@H](O)[C@H](O)[C@H]3O)cc(O)cc2O[C@@H]1c1cc(O)c(O)c(O)c1)c1cc(O)c(O)c(O)c1` [5-O-α-D-glucopyranosyl-(−)-epigallocatechin-3-O-gallate]: in data set [2] (water), the “solubility compared to (−)-epigallocatechin-3-O-gallate” value was “significantly increased solubility”.

maltohexaose: in the data set with Cellulase “Onozuka” RS [4], the “Product (% area) 5-Glc” value is given as 7.89 % area and the “Product (% area) 7-Glc” value came out at 2.06 % area.

Turning to `OC[C@H]1O[C@@H]2O[C@H]3[C@H](O)[C@@H](O)[C@@H](O[C@H]4[C@H](O)[C@@H](O)[C@@H](O[C@H]5[C@H](O)[C@@H](O)[C@@H](O[C@H]6[C@H](O)[C@@H](O)[C@@H](O[C@H]7[C@H](O)[C@@H](O)[C@@H](O[C@H]8[C@H](O)[C@@H](O)[C@@H](O[C@H]1[C@H](O)[C@H]2O)O[C@@H]8CO)O[C@@H]7CO)O[C@@H]6CO)O[C@@H]5CO)O[C@@H]4CO)O[C@@H]3CO` [β-cyclodextrin], the “degradation of sugar” value with TRa2 [3] is listed as “no degradation”.
